Measurements from US11591326B2, “Inhibitors of protein arginine methyltransferase 5 (PRMT5), pharmaceutical products thereof, and methods thereof” (PHARMABLOCK SCIENCES (NANJING), INC., priority 2018, dated 2023).
Like-named read-outs stand apart in the source and are kept apart here.

Key:
A-549 = assay: Lung cancer panel proliferation inhibition, A-549; assay type: cell-based; conditions: Homo sapiens
Protocol: (§1) Inhibitory ability of compounds synthesized on the proliferation of three panels of cancer cell lines, including 5 breast cancer, 6 liver cancer, and 3 lung cancer cell lines were evaluated. Exponentially growing cells were seeded in the media of choice at various cell densities in 384-well plates with 20 ul per well and incubated overnight at 37° C., 5% CO2 incubator. Compounds were prepared as 10-point, 3-fold serial dilutions in DMSO, beginning at 6 mM. 1 μl of DMSO solutions from the compound stock plates were added to 99 ul of cell media (final top concentration of compound in the assay was 30 uM and the final concentration of DMSO was 0.5%). 20 μL of compound solutions in media were added to each well of plates with cells seeded. After adding compound solutions, assay plates were incubated for 8 and 12 days, respectively, at 37° C., 5% CO2. During this incubation period, cell media was changed every 4 days. After removing old media from cell plates, 40 ul of media with testing compounds dissolved, which were prepared by adding 1 ul of compound DMSO serial solutions to 199 ul of cell media, were added to the assay plates with the same layout as they were initially prepared. After 8 or 12 days, cell viability was measured using the CellTiter-Glo assay kit from Promega (Madison, Wis., USA) by quantitating the ATP present in the cell cultures. 20 μL of CellTiter-Glo reagent was added to each well of the cell plates. Luminescence was read after 10 minute of incubation with the Envision multiple plate reader from PerkinElmer (Waltham, Mass., USA). The concentrations of compounds inhibiting cell viability by 50% (IC50 values) were determined using a sigmoidal dose-response model (variable slopes, four parameters) in Prism 7 (La Jolla, Calif., USA).

[1] = Pharmacokinetic study in dog; assay type: in vivo, male beagle dogs; conditions: male, beagle; for plasma clearance / Vd: 2 mg/kg, Dog PK (IV) 2 mpk; for plasma clearance: read-out: Clint (converted); for Vd / AUC(0-t) / Cmax / Tmax / bioavailability / half-life: plasma; for Vd: read-out: Vss; for AUC(0-t) / Cmax / Tmax / bioavailability / half-life: 10 mg/kg, Dog PK (PO) 10 mpk; for half-life: read-out: T½ (converted)
Protocol: (§2) None naïve male beagle dogs (8-10 kg; purchased from Beijing Marshall Biotechnology Co. LTD; n=18, with 3 per compound) were treated with a single dose of compounds being tested at 2 mg/kg by intravenous tail-vein injection and 10 mg/kg by oral gavage administration, with both doses formulated in 5% DMSO+45% PEG400 in water. Animals upon PO administration were fasted overnight and fed 4 hours after dosing. Animals upon IV administration were free access to food and water. The study was performed in accordance with the guidelines and standards of the Association for Assessment and Accreditation of Laboratory Animal Care (AAALAC International) and the National Institutes of Health.
The animal was restrained manually at the designated time points, and approximately 500 μL of each blood/time point was collected via cephalic vein and put on wet ice, then centrifuged at 2000 g for 5 min (4° C.) within 15 minutes post sampling. Plasma samples were stored at approximately −70° C. until analysis. An aliquot of 20 μL sample was added with 200 μL IS (Diclofenac, 100 ng/mL) in ACN. The mixture was vortexed for 10 min and centrifuged at 5800 rpm for 10 min. An aliquot of 1 μL supernatant was injected for LC-MS/MS analysis. For 10×-diluted sample, an aliquot of 2 μL sample was added with 18 μL blank plasma. The sample preparation procedure is same with no-diluted sample. Standard calibration curves were constructed by analyzing a series of control plasma aliquots containing Diclofenac (100 ng/mL) as an internal standard and 3-3,000 ng/mL testing compounds. Compound concentrations were determined with UPLC-MS/MS-22 (Triple Quad™ 6500).

[2] = Pharmacokinetic study in mouse; assay type: in vivo, Male CD-1 mice; conditions: male, CD-1, plasma; for plasma clearance / Vd: 2 mg/kg, Mouse PK (IV) 2 mpk; for plasma clearance: read-out: Clint (converted); for Vd: read-out: Vss; for AUC(0-t) / Cmax / Tmax / bioavailability / half-life: 10 mg/kg, Mouse PK (PO) 10 mpk; for half-life: read-out: T½ (converted)
Protocol: as §2, with “Male CD-1 mice (16-24 g; 6-8 weeks;” for “None naïve male beagle dogs (8-10 kg;”, “Shanghai SLAC laboratory animal CO.” for “Beijing Marshall Biotechnology Co.”, “time point)” for “compound)”, “20% N,N-dimethylacetamide” for “5% DMSO+45% PEG400”
The animals were anesthetized via isoflurane at the designated time points, and approximately 110 μL of blood sample was collected via retro-orbital puncture or cardiac puncture for stagger bleeding under the anesthesia with Isoflurane inhalation into EDTA-2K tubes. The blood samples were maintained in wet ice first and centrifuged to obtain plasma (2000 g, 4° C., 5 min) within 15 minutes post sampling. Plasma samples were stored at approximately −70° C. until analysis. For plasma samples not diluted, an aliquot of 20 μL sample was added with 200 μL IS (Propranolol, 100 ng/mL) in ACN. The mixture was vortexed for 10 min and centrifuged at 5800 rpm for 10 min. An aliquot of 0.5 μL supernatant was injected for LC-MS/MS analysis. For 10-fold diluted plasma samples, an aliquot of 2 μL sample was added with 18 μL blank diluted plasma, the dilution factor was 10. The followed operation was the same as no diluted plasma samples. Standard calibration curves were constructed by analyzing a series of control plasma aliquots containing Propranolol (100 ng/mL) as an internal standard and 1.0-3,000 ng/mL testing compounds. Compound concentrations were determine with UPLC-MS/MS-33 (Triple Quad™ 6500 Plus).

MDA-MB-231 = assay: Breast cancer panel proliferation inhibition, MDA-MB-231; assay type: cell-based; conditions: Homo sapiens
Protocol: as §1

[3] = A549, 192 h, A-549, 8 days, read-out: IC50 (μM) 8 days
[4] = A549, 288 h, A-549, 12 days, read-out: IC50 (μM) 12 days
[5] = 192 h, MDA-MB-231, 8 days, read-out: IC50 (μM) 8 days
[6] = 288 h, MDA-MB-231, 12 days, read-out: IC50 (μM) 12 days

Row | SMILES | IC50 (A-549; [3]) [µM] | IC50 (A-549; [4]) [µM] | plasma clearance [1] [mL/min/kg] | Vd [1] [L/kg] | AUC(0-t) [1] [ng·h/mL] | Cmax [1] [ng/mL] | Tmax [1] [h] | bioavailability [1] [%] | half-life [1] [h] | plasma clearance [2] [mL/min/kg] | Vd [2] [L/kg] | AUC(0-t) [2] [ng·h/mL] | Cmax [2] [ng/mL] | Tmax [2] [h] | bioavailability [2] [%] | half-life [2] [h] | IC50 (MDA-MB-231; [5]) [µM] | IC50 (MDA-MB-231; [6]) [µM]
1 | CC(=O)N1CCC(Nc2ccc3c(c2)C(=O)N(C[C@H](O)CN2CCc4ccccc4C2)CC3)CC1 [Compound 24a, (R)-7-((1-acetylpiperidin-4-yl)amino)-2-(3-(3,4-dihydroisoquinolin-2(1H)-yl)-2-hydroxypropyl)-3,4-dihydroisoquinolin-1(2H)-one] | 0.064 | 0.037 | 4.27 | 1.81 ± 0.13 | 35100 ± 7990 | 4440 ± 680 | 2 | 89.8 ± 20.5 | 3.76 ± 0.195 | 35.7 | 2.48 | 3410 | 3580 | 0.25 | 73.3 | 1.22 | 0.49 | 0.075
2 | CC(=O)N1CCC(Nc2ccc3c(c2)C(=O)N(C[C@H](O)CN2CCc4ccccc4C2)CCO3)CC1 [Compound 52a, (R)-7-((1-acetylpiperidin-4-yl)amino)-4-(3-(3,4-dihydroisoquinolin-2(1H)-yl)-2-hydroxypropyl)-3,4-dihydrobenzo[f][1,4]oxazepin-5(2H)-one] | 0.13 | 0.028 | 5.17 | 1.56 ± 0.041 | 42100 ± 13200 | 5550 ± 1590 | 1.33 ± 0.577 | 133 ± 38.6 | 4.81 ± 1 | 50.7 | 2.25 | 2720 | 3080 | 0.25 | 83 | 2.86 | 0.17 | 0.064
3 | CC(=O)N1CCC(Nc2cc(C(=O)NC[C@H](O)CN3CCc4ccccc4C3)ncn2)CC1 [Compound C3, reference compound] | 0.096 | 0.066 | 13.5 | 1.32 ± 0.144 | 13300 ± 3280 | 3000 ± 567 | 1.67 ± 0.577 | 105 ± 25.5 | 3.37 ± 0.64 | 44.7 | 1.48 | 2420 | 761 | 2 | 64.9 | 0.798 | 0.7 | 0.096
